Entries after “also recorded” stand apart in the source; their conditions may differ.
Tests used:
aged C57BL/6J male mice = assay: Bone and adipose metabolism in aged mice, dosing in drinking water from 18 months of age for six months; format: in vivo, mouse; conditions: for body weight: after six months treatment
Procedure: (§1) For the mice on high fat diets, the starting animal weights were about 25 grams.
(§2) Mice weighed 40 g on average at the start of the study. Body weight, food and water consumption were monitored on a weekly basis. Nuclear magnetic resonance scanner was used to assess lean mass and fat mass composition. Liver and adipose tissues were harvested for histology and histomorphometric analyses. Femur, tibia and mandible were subjected to μCT scanning and reconstruction. […] One-way ANOVA was performed to quantify differences among all the groups.

OVX C57BL/6J female mice = assay: Ovariectomy (OVX)-induced osteoporosis and obesity in mice, dosing in drinking water over two months; format: in vivo, mouse
From the text: Aging-related bone loss and osteoporosis frequently occur in women after menopause. To mimic the pathogenesis of osteoporotic bone loss, we performed ovariectomy (OVX) on female mice to induce estrogen deficiency. […] Mice weight on average 20 g at the start of the experiment. […] Dosing was over two months.
as §1
We monitored mouse body weight, food and water consumption on a weekly basis for two months. Nuclear magnetic resonance scanner was used to assess lean mass and fat mass composition. Serum chemistries were analyzed in UCLA DLAM facility. Liver and adipose tissues were harvested for histology and histomorphometric analyses. Femur, tibia and mandible were subjected to micro-CT scanning and reconstruction. […] One-way ANOVA was performed to quantify differences among all the groups.

[1] = Stability of water solutions; format: physicochemical; conditions: water solution
Solubility in water = format: physicochemical
HFD-fed mice = assay: High fat diet (HFD)-induced obesity and bone loss in mice, dosing in drinking water for three months; format: in vivo, mouse
From the text: as §1
as §2, with “were given a regular diet or high fat diet (HFD) for three months beginning” for “weighed 40 g on average”, “age” for “the start”, “8 weeks. […]” for “the study.”, “basis for three months.” for “basis.”, “micro-CT” for “μCT”

[2] = 100 mg/kg/day alone, compared with 500 mg/kg/day and combination groups

Row | solubility in water (Solubility in water) | Compound | body weight (aged C57BL/6J male mice; 100 mg/kg/day alone, compared with control) | fat mass and lean mass (nuclear magnetic resonance) (aged C57BL/6J male mice; [2]) | weight and size of liver (aged C57BL/6J male mice; [2]) | weight of pgWAT (aged C57BL/6J male mice; [2]) | body weight (aged C57BL/6J male mice; 500 mg/kg/day alone) | weight and size of liver (aged C57BL/6J male mice; 500 mg/kg/day alone, comparison is worded from the side of control and 100 mg/kg/day groups) | weight and size of liver (OVX C57BL/6J female mice; 100 mg/kg/day alone, OVX mice) | OVX-induced body weight gain (OVX C57BL/6J female mice; 100 mg/kg/day alone, drinking water, two months) | OVX-induced mouse body weight gain (OVX C57BL/6J female mice; 500 mg/kg/day alone, drinking water, two months) | stability of the water solutions [1] | fat mass (nuclear magnetic resonance) (HFD-fed mice; 100 mg/kg/day alone, HFD) | weight gains induced by HFD (HFD-fed mice; low concentration (100 mg/kg/day) alone, three months) | pgWAT weight gain induced by HFD (HFD-fed mice; low concentration alone)
1 | dissolve well in water | NC(=O)c1ccc[n+]([C@@H]2O[C@H](COP(=O)([O-])O)[C@@H](O)[C@H]2O)c1 [NMN, 3-carbamoyl-1-[5-O-(hydroxyphosphinato)-β-D-ribofuranosyl]pyridinium] | increased at a similar rate | significantly higher fat mass and lower lean mass | significantly higher | significantly higher | decreased significantly | significantly higher in control, 100 mg/kg/day α-KG, and 100 mg/kg/day NMN groups compared with | did not significantly affect | ineffective; also recorded: did not significantly inhibit | significantly inhibited | highly stable | could not affect | did not significantly reduce | did not significantly inhibit
2 | – | alpha-ketoglutarate [α-KG] | – | – | – | – | – | – | – | – | – | highly stable | – | – | –

— patent publication US20250281518A1, “METHODS AND AGENTS FOR PREVENTING SKELETAL AGING, OSTEOPOROSIS AND OBESITY” (The Regents of the University of California, priority 2022, published 2025)
